Source: patent US20090036448A1, “PYRIMIDINE DERIVATIVES AND METHODS OF TREATMENT RELATED TO THE USE THEREOF” (TAISHO PHARMECUTICAL CO., LTD., priority 2004, published 2009)

Each compound was assayed against MCH receptor (Homo sapiens, UniProt Q99705) (assay: Receptor binding assay with Radiolabelled MCH Ligand). Settings: class by percent of control at 10^-7 M or IC50.
Set-up: expressed in transfected cells; host or cells: 293 cells (human kidney, ATCC), transient transfection; crude membranes
Procedure, shortened: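 Membranes from 293 cells transiently transfected with human MCH receptor competed test compounds against a radiolabelled MCH ligand in Tris-HCl pH 7.4 with MgCl2 and EDTA for 60–120 min at room temperature. Filtration and scintillation counting followed, with cold MCH defining nonspecific binding. IC50 came from logit-log plots of %B/B0, and Ki from the Cheng-Prusoff equation.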

MCH receptor, sequence (Q99705 whole entry): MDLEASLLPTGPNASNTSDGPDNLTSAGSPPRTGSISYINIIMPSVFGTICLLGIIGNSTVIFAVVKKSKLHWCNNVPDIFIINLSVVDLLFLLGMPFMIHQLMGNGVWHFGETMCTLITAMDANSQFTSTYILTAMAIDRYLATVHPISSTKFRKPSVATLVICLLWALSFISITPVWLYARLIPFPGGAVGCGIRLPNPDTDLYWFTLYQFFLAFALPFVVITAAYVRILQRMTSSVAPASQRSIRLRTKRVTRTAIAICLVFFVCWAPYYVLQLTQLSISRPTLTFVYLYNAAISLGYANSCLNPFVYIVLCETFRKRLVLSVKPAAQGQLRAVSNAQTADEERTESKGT

| Structure (SMILES) | class |
| --- | --- |
| Cc1nc(N[C@H]2CC[C@@H](NS(=O)(=O)c3ccc(Br)s3)CC2)cc(N(C)C)n1 [compound 520] | 3 (Class 3: The value of percent of control at 10^−7 M was more than 60% or the value of IC50 was more than 200 nM.) |
| Cc1nc(N[C@H]2CC[C@@H](NS(=O)(=O)c3sc4ccc(Cl)cc4c3C)CC2)cc(N(C)C)n1 [compound 511] | 3 (Class 3: The value of percent of control at 10^−7 M was more than 60% or the value of IC50 was more than 200 nM.) |
| Cc1nc(N[C@H]2CC[C@@H](NC(=O)c3cc4ccccc4s3)CC2)cc(N(C)C)n1 [compound 203] | 3 (Class 3: The value of percent of control at 10^−7 M was more than 60% or the value of IC50 was more than 200 nM.) |
| Cc1nc(N[C@H]2CC[C@@H](NC(=O)c3ccc(F)c(F)c3)CC2)cc(N(C)C)n1 [compound 218, N-(cis-4-{[6-(dimethylamino)-2-methylpyrimidin-4-yl]amino}cyclohexyl)-3,4-difluorobenzamide] | 1 (Class 1: The value of percent of control at 10^−7 M was less than 40% or the value of IC50 was less than 50 nM.) |
| Cc1nc(N[C@H]2CC[C@@H](NC(=O)c3cnn(-c4ccc([N+](=O)[O-])cc4)c3C(F)(F)F)CC2)cc(N(C)C)n1 [compound 233] | 3 (Class 3: The value of percent of control at 10^−7 M was more than 60% or the value of IC50 was more than 200 nM.) |
| Cc1nc(N[C@H]2CC[C@@H](NCc3ccc(F)c(Cl)c3)CC2)cc(N(C)C)n1 [compound 401] | 3 (Class 3: The value of percent of control at 10^−7 M was more than 60% or the value of IC50 was more than 200 nM.) |
| CCCCCc1ccc(C(=O)N[C@H]2CC[C@@H](Nc3cc(N(C)C)nc(C)n3)CC2)cc1 [compound 252] | 3 (Class 3: The value of percent of control at 10^−7 M was more than 60% or the value of IC50 was more than 200 nM.) |
| Cc1ccc(C(=O)CC(Sc2ccc(Cl)cc2)C(=O)N[C@H]2CC[C@@H](Nc3cc(N(C)C)nc(C)n3)CC2)cc1 (relative stereo) [compound 310] | 3 (Class 3: The value of percent of control at 10^−7 M was more than 60% or the value of IC50 was more than 200 nM.) |
| CCOC(=O)N[C@H]1CC[C@@H](Nc2cc(N(C)C)nc(C)n2)CC1 [compound 459] | 3 (Class 3: The value of percent of control at 10^−7 M was more than 60% or the value of IC50 was more than 200 nM.) |
| Cc1nc(N[C@H]2CC[C@@H](NC(=O)Nc3c(C)cc(Br)cc3C)CC2)cc(N(C)C)n1 [compound 416, N-(4-bromo-2,6-dimethylphenyl)-N′-(cis-4-{[6-(dimethylamino)-2-methylpyrimidin-4-yl]amino}cyclohexyl)urea] | 1 (Class 1: The value of percent of control at 10^−7 M was less than 40% or the value of IC50 was less than 50 nM.) |
| Cc1nc(N[C@H]2CC[C@@H](NC(=O)COc3ccc(Cl)cc3)CC2)cc(N(C)C)n1 [compound 209] | 3 (Class 3: The value of percent of control at 10^−7 M was more than 60% or the value of IC50 was more than 200 nM.) |
| Cc1nc(N[C@H]2CC[C@@H](NC(=O)Cc3ccccc3)CC2)cc(N(C)C)n1 [compound 235] | 3 (Class 3: The value of percent of control at 10^−7 M was more than 60% or the value of IC50 was more than 200 nM.) |
| Cc1nc(N[C@H]2CC[C@@H](NC(=O)Nc3cccc4ccccc34)CC2)cc(N(C)C)n1 [compound 432] | 3 (Class 3: The value of percent of control at 10^−7 M was more than 60% or the value of IC50 was more than 200 nM.) |
| CSc1ncccc1C(=O)N[C@H]1CC[C@@H](Nc2cc(N(C)C)nc(C)n2)CC1 [compound 226] | 3 (Class 3: The value of percent of control at 10^−7 M was more than 60% or the value of IC50 was more than 200 nM.) |
| Cc1nc(N[C@H]2CC[C@@H](NC(=O)Nc3c(Br)cc(Br)cc3Br)CC2)cc(N(C)C)n1 [compound 429, N-(cis-4-{[6-(dimethylamino)-2-methylpyrimidin-4-yl]amino}cyclohexyl)-N′-(2,4,6-tribromophenyl)urea] | 1 (Class 1: The value of percent of control at 10^−7 M was less than 40% or the value of IC50 was less than 50 nM.) |
| Cc1nc(N[C@H]2CC[C@@H](NS(=O)(=O)c3cccc4cccnc34)CC2)cc(N(C)C)n1 [compound 522] | 3 (Class 3: The value of percent of control at 10^−7 M was more than 60% or the value of IC50 was more than 200 nM.) |
| COC(=O)[C@H](Cc1ccccc1)NC(=O)N[C@H]1CC[C@@H](Nc2cc(N(C)C)nc(C)n2)CC1 (relative stereo) [compound 411] | 3 (Class 3: The value of percent of control at 10^−7 M was more than 60% or the value of IC50 was more than 200 nM.) |
| COc1cccc(S(=O)(=O)N[C@H]2CC[C@@H](Nc3cc(N(C)C)nc(C)n3)CC2)c1 [compound 493] | 3 (Class 3: The value of percent of control at 10^−7 M was more than 60% or the value of IC50 was more than 200 nM.) |
| Cc1nc(N[C@H]2CC[C@@H](NC(=O)c3cccc([N+](=O)[O-])c3)CC2)cc(N(C)C)n1 [compound 232, N-(cis-4-{[6-(dimethylamino)-2-methylpyrimidin-4-yl]amino}cyclohexyl)-3-nitrobenzamide] | 3 (Class 3: The value of percent of control at 10^−7 M was more than 60% or the value of IC50 was more than 200 nM.) |
| Cc1nc(N[C@H]2CC[C@@H](NCCOc3ccc(Cl)cc3)CC2)cc(N(C)C)n1 [compound 361] | 3 (Class 3: The value of percent of control at 10^−7 M was more than 60% or the value of IC50 was more than 200 nM.) |

| Structure (SMILES) | class |
| --- | --- |
| COCCOC(=O)N[C@H]1CC[C@@H](Nc2cc(N(C)C)nc(C)n2)CC1 [compound 457] | 3 (Class 3: The value of percent of control at 10^−7 M was more than 60% or the value of IC50 was more than 200 nM.) |
| Cc1nc(N[C@H]2CC[C@@H](NC(=O)c3cccnc3Sc3ccccc3)CC2)cc(N(C)C)n1 [compound 266] | 3 (Class 3: The value of percent of control at 10^−7 M was more than 60% or the value of IC50 was more than 200 nM.) |
| Cc1nc(N[C@H]2CC[C@@H](NCCc3ccccc3)CC2)cc(N(C)C)n1 [compound 382] | 3 (Class 3: The value of percent of control at 10^−7 M was more than 60% or the value of IC50 was more than 200 nM.) |
| Cc1nc(N[C@H]2CC[C@@H](NC(=O)c3ccc4c(c3)OCO4)CC2)cc(N(C)C)n1 [compound 237] | 3 (Class 3: The value of percent of control at 10^−7 M was more than 60% or the value of IC50 was more than 200 nM.) |
| Cc1nc(N[C@H]2CC[C@@H](NC(=O)Nc3c(F)cc(Br)cc3Br)CC2)cc(N(C)C)n1 [compound 431] | 3 (Class 3: The value of percent of control at 10^−7 M was more than 60% or the value of IC50 was more than 200 nM.) |
| Cc1nc(N[C@H]2CC[C@@H](NS(=O)(=O)c3ccc(-c4cc(C(F)(F)F)nn4C)s3)CC2)cc(N(C)C)n1 [compound 515] | 3 (Class 3: The value of percent of control at 10^−7 M was more than 60% or the value of IC50 was more than 200 nM.) |
| Cc1nc(N[C@H]2CC[C@@H](NC(=O)Nc3c(C)cccc3C(C)(C)C)CC2)cc(N(C)C)n1 [compound 422] | 2 (Class 2: The value of percent of control at 10^−7 M was from 40% to 60% or the value of IC50 was from 50 nM to 200 nM.) |
| Cc1nc(N[C@H]2CC[C@@H](NC(=O)CC3=CCCCC3)CC2)cc(N(C)C)n1 [compound 278] | 3 (Class 3: The value of percent of control at 10^−7 M was more than 60% or the value of IC50 was more than 200 nM.) |
| Cc1nc(N[C@H]2CC[C@@H](NC(=O)OCc3ccccc3Cl)CC2)cc(N(C)C)n1 [compound 468] | 3 (Class 3: The value of percent of control at 10^−7 M was more than 60% or the value of IC50 was more than 200 nM.) |
| Cc1nc(N[C@H]2CC[C@@H](NS(=O)(=O)c3ccc(Oc4ncc(C(F)(F)F)cc4Cl)cc3)CC2)cc(N(C)C)n1 [compound 497] | 3 (Class 3: The value of percent of control at 10^−7 M was more than 60% or the value of IC50 was more than 200 nM.) |
| Cc1nc(N[C@H]2CC[C@@H](NC(=O)Nc3ccccc3OC(F)(F)F)CC2)cc(N(C)C)n1 [compound 424] | 3 (Class 3: The value of percent of control at 10^−7 M was more than 60% or the value of IC50 was more than 200 nM.) |
| Cc1nc(N[C@H]2CC[C@@H](NC(=O)c3ccccc3-c3ccc(C(F)(F)F)cc3)CC2)cc(N(C)C)n1 [compound 307] | 3 (Class 3: The value of percent of control at 10^−7 M was more than 60% or the value of IC50 was more than 200 nM.) |
| Cc1nc(N[C@H]2CC[C@@H](NC(=O)CCCCc3cccs3)CC2)cc(N(C)C)n1 [compound 316] | 3 (Class 3: The value of percent of control at 10^−7 M was more than 60% or the value of IC50 was more than 200 nM.) |
| CCCCOc1ccc(S(=O)(=O)N[C@H]2CC[C@@H](Nc3cc(N(C)C)nc(C)n3)CC2)cc1 [compound 494] | 3 (Class 3: The value of percent of control at 10^−7 M was more than 60% or the value of IC50 was more than 200 nM.) |
| Cc1nc(N[C@H]2CC[C@@H](NC(=O)CC3Cc4ccccc4C3)CC2)cc(N(C)C)n1 [compound 339] | 3 (Class 3: The value of percent of control at 10^−7 M was more than 60% or the value of IC50 was more than 200 nM.) |
| Cc1nc(N[C@H]2CC[C@@H](NC(=O)Cc3ccc(Cl)cc3)CC2)cc(N(C)C)n1 [compound 213] | 3 (Class 3: The value of percent of control at 10^−7 M was more than 60% or the value of IC50 was more than 200 nM.) |
| Cc1nc(N[C@H]2CC[C@@H](NS(=O)(=O)c3cccn3-c3ncc(C(F)(F)F)cc3Cl)CC2)cc(N(C)C)n1 [compound 516] | 3 (Class 3: The value of percent of control at 10^−7 M was more than 60% or the value of IC50 was more than 200 nM.) |
| Cc1nc(N[C@H]2CC[C@@H](NCc3cnn(-c4ccccc4)c3C(F)(F)F)CC2)cc(N(C)C)n1 [compound 384] | 3 (Class 3: The value of percent of control at 10^−7 M was more than 60% or the value of IC50 was more than 200 nM.) |
| Cc1nc(N[C@H]2CC[C@@H](NCc3cnn(C)c3Cl)CC2)cc(N(C)C)n1 [compound 410] | 3 (Class 3: The value of percent of control at 10^−7 M was more than 60% or the value of IC50 was more than 200 nM.) |
